Measured values taken from article PMC9737391, “Trifluoromethylcinnamanilide Michael Acceptors for Treatment of Resistant Bacterial Infections” (International Journal of Molecular Sciences, 2022).
Converted amounts (≈) assume the structure as drawn. “And” between values parts separate entries of the source, which are not always exact repeats. Equal entries are not always repeated.

Experiments:
[1] = test system: methicillin-resistant S. aureus 63718 (MRSA3); experiment: MBC, agar aliquot subculture method; type: cell-based; conditions: Staphylococcus aureus; MRSA 63718
S. aureus/MRSA = experiment: Antistaphylococcal activity, summary over strains; type: cell-based, Staphylococcus aureus; conditions: for MIC: Staphylococcus aureus, MRSA, average over the named compounds and strains, read-out: average MIC against S. aureus/MRSA; for antistaphylococcal MICs/MBCs: range over S. aureus and MRSA isolates and over the named compounds
[2] = test system: Enterococcus faecalis ATCC 29212; experiment: MBC, agar aliquot subculture method; type: cell-based; conditions: ATCC29212, E. faecalis reference strain
[3] = test system: vancomycin-resistant E. faecalis VRE 725B (VRE3); experiment: MIC, microtitration broth method; type: cell-based, Enterococcus faecalis
[4] = test system: vancomycin-resistant E. faecalis VRE 342B (VRE1); experiment: MBC, agar aliquot subculture method; type: cell-based, Enterococcus faecalis
[5] = test system: vancomycin-resistant E. faecalis VRE 725B (VRE3); experiment: MBC, agar aliquot subculture method; type: cell-based, Enterococcus faecalis
[6] = test system: M. smegmatis and M. marinum; experiment: Antimycobacterial activity, summary over both strains; type: cell-based; conditions: average over the named compounds and strains; read-out: average MIC against M. smegmatis and M. marinum
[7] = test system: vancomycin-resistant E. faecalis VRE 342B (VRE1); experiment: MIC, microtitration broth method; type: cell-based, Enterococcus faecalis
E. faecalis/VRE = experiment: Anti-enterococcal activity, summary over strains; type: cell-based, Enterococcus faecalis; conditions: for MIC: Enterococcus faecalis, VRE, average over the named compounds and strains, read-out: average MIC against E. faecalis/VRE; for anti-enterococcal MICs/MBCs: range over E. faecalis and VRE isolates and over the named compounds
[8] = test system: Mycobacterium marinum CAMP 5644; experiment: In vitro antimycobacterial evaluation (MIC); type: cell-based
[9] = test system: Staphylococcus aureus ATCC 29213; experiment: MIC, microtitration broth method; type: cell-based; conditions: ATCC29213, S. aureus ATCC 29213
S. aureus ATCC 29213 = experiment: MTT assay, inhibition of bacterial respiration; type: cell-based, Staphylococcus aureus
Excerpt: The MTT assay can be used to assess cell growth by measuring respiration. Respiratory activity of bacterial cells (which is finally reflected in their viability) less than 70% after exposure to the MIC values for each tested compound is considered as a positive result of this assay. This low level of cell oxidative metabolism indicates inhibition of cell growth by inhibition of respiration. The lowest multiples of MIC values that achieved more than 70% inhibition of S. aureus ATCC 29213 viability (%) are shown in Table 3.
The percent inhibition of respiration of S. aureus ATCC 29213 was determined through the MTT assay. The assay was performed as described recently. The percent viability is calculated through the comparison of a measured value and that of the uninhibited control: % viability = OD570E/OD570P × 100, where OD570E is the reading from the compound-exposed cells, while OD570P is the reading from the uninhibited cells (positive control). Cytotoxic potential is determined by a percent viability of <70% [46, 47].

[10] = test system: methicillin-resistant S. aureus SA 3202 (MRSA1); experiment: MBC, agar aliquot subculture method; type: cell-based; conditions: Staphylococcus aureus; MRSA SA 3202
[11] = test system: methicillin-resistant S. aureus SA 630 (MRSA2); experiment: MIC, microtitration broth method; type: cell-based; conditions: Staphylococcus aureus; MRSA SA 630
[12] = test system: methicillin-resistant S. aureus SA 630 (MRSA2); experiment: MBC, agar aliquot subculture method; type: cell-based; conditions: Staphylococcus aureus; MRSA SA 630
[13] = test system: Enterococcus faecalis ATCC 29212; experiment: MIC, microtitration broth method; type: cell-based; conditions: ATCC29212, E. faecalis reference strain
[14] = Lipophilicity determination by RP-HPLC; type: physicochemical; conditions: RP-HPLC, logarithm of capacity factor k
Description: It is evident from the graphs in Figure 1 that the correlation coefficients of the dependences of log k/log D6.5/log D7.4 have a value of r = 0.999 (n = 32), which means that the investigated compounds behave insignificantly differently in aqueous media with different pH. Moreover, lipophilicity was calculated as log P and Clog P using two prediction programs. […] Therefore, only log P values predicted by ACD/Percepta can be used for correlations with experimental values. These matches are shown in the graphs in Figure 2, and according to the correlation coefficient r~0.940 (n = 32), it can be argued that even the predicted lipophilicity values correlate with the experimentally measured ones. However, the largest variations were observed (no difference for series 1, 2) for compounds substituted with 2-Cl, 2-CF3, 2,5-Cl, 4-F, 4-CF3, and 3,5-F, 3,5-Cl. These are mainly substituents capable of forming hydrogen and other types of non-bonding interactions both with the surrounding environment and within the molecule. Overall, series 1 (3-CF3) is less lipophilic than series 2 (4-CF3), but the differences in the experimental data are insignificant. Unsubstituted derivatives 1a/2a are the least lipophilic compounds, while derivatives 1o/2o (3,5-Cl) and 1p/2p (3,5-CF3) are the most lipophilic compounds.
Experimental determination of lipophilicity values (log k, log D6.5, and log D7.4) was performed under the same conditions and on the same device as described by Strharsky et al..

[15] = test system: methicillin-resistant S. aureus SA 3202 (MRSA1); experiment: MIC, microtitration broth method; type: cell-based; conditions: Staphylococcus aureus; MRSA SA 3202
[16] = test system: vancomycin-resistant E. faecalis VRE 368 (VRE2); experiment: MBC, agar aliquot subculture method; type: cell-based, Enterococcus faecalis
[17] = test system: methicillin-resistant S. aureus 63718 (MRSA3); experiment: MIC, microtitration broth method; type: cell-based; conditions: Staphylococcus aureus; MRSA 63718
[18] = test system: Staphylococcus aureus ATCC 29213; experiment: MBC, agar aliquot subculture method; type: cell-based; conditions: ATCC29213, S. aureus ATCC 29213
[19] = test system: human monocytic leukemia cell line THP-1; experiment: In vitro cell viability (cytotoxicity screening); type: cell-based; conditions: 24 h, medium with 10% FBS, ± SD, n = 6
Description: The investigated anilides can be divided into three groups. […] Higher concentrations (than 10 or 30 µM) were not possible to evaluate due to precipitation of the tested compounds in water medium. Based on all these observations, it can be concluded that the high antimicrobial activity of 3,5-CF3-substituted compounds is associated with significant cytotoxic effect against eukaryotic cells. On the other hand, the other still effective compounds, especially agents 1j and 1o, have an insignificant toxic effect, which makes them interesting for further study.
Human monocytic leukemia THP-1 cells obtained from the European Collection of Cell Cultures (ECACC, Salisbury, UK) were used for in vitro antiproliferative assays. A recently described procedure was used.

M. smegmatis ATCC 700084 = experiment: In vitro antimycobacterial evaluation (MIC); type: cell-based, Mycobacterium smegmatis; conditions: for MIC: Mycolicibacterium smegmatis, ATCC700084
[20] = test system: vancomycin-resistant E. faecalis VRE 368 (VRE2); experiment: MIC, microtitration broth method; type: cell-based, Enterococcus faecalis
M. tuberculosis H37Ra = test system: M. tuberculosis H37Ra; set-up: method as in ref 26 = [26]; PMID 30087309; doi:10.3390/ijms19082318; 26. Pospisilova S. Kos J. Michnova H. Kapustikova I. Strharsky T. Oravec M. Moricz A.M. Bakonyi J. Kauerova T. Kollar P. Synthesis and spectrum of biological activities of novel N -arylcinnamamides In; conditions: average over the named compounds; cited from earlier work

Row | SMILES | MBC [1] | MIC (S. aureus/MRSA) | antistaphylococcal MICs/MBCs (S. aureus/MRSA) | MBC [2] | MIC [3] | MBC [4] | MBC [5] | MIC [7] | MIC [9] | Conc.: lowest multiple of MIC with at least 70% inhibition of respiratory activity (S. aureus ATCC 29213) | Conc.: the same concentration as multiple of MBC (S. aureus ATCC 29213) | melting point | MBC [10] | MIC [11] | MBC [12] | log k [14] | MIC [15] | MIC [17] | MBC [18] | IC50 [19] | other results
1 | O=C(/C=C/c1cccc(C(F)(F)F)c1)Nc1ccc(C(F)(F)F)cc1 [1j, (2E)-3-[3-(Trifluoromethyl)phenyl]-N-[4-(trifluoromethyl)phenyl]prop-2-enamide] | 5.57 µM (≈ 2 µg/mL) | ~1.4 µM (≈ 0.503 µg/mL) | 0.15 to 5.57 µM and 0.146 to 5.57 µM | 22.3 µM (≈ 8.01 µg/mL) | 22.3 µM (≈ 8.01 µg/mL) | 22.3 µM (≈ 8.01 µg/mL) | 22.3 µM (≈ 8.01 µg/mL) | 22.3 µM (≈ 8.01 µg/mL) | 2.78 µM (≈ 0.999 µg/mL) | 0.5× MIC (0.5× MBC) | 0.5× MIC (0.5× MBC) | 118 to 120 °C | 2.78 µM (≈ 0.999 µg/mL) | 1.39 µM (≈ 0.499 µg/mL) | 1.39 µM (≈ 0.499 µg/mL) | 0.9247 | 2.78 µM (≈ 0.999 µg/mL) | 2.78 µM (≈ 0.999 µg/mL) | 2.78 µM (≈ 0.999 µg/mL) | > 30 µM | MIC [6]: ~4.1 µM (≈ 1.47 µg/mL); MIC (E. faecalis/VRE): ~15 µM (≈ 5.39 µg/mL); anti-enterococcal MICs/MBCs (E. faecalis/VRE): 2.34 to 44.5 µM; MIC MM ([8]; M. marinum CAMP 5644): 0.348 – µM; MIC ([8]; Mycobacterium marinum, CAMP5644, M. marinum CAMP 5644): 0.29 to 22.2 µM (≈ 0.104 to 7.98 µg/mL); MIC [13]: 22.3 µM (≈ 8.01 µg/mL); MBC [16]: 44.5 µM (≈ 16 µg/mL); MIC (M. smegmatis ATCC 700084): 11.1 µM (≈ 3.99 µg/mL); MIC [20]: 44.5 µM (≈ 16 µg/mL)
2 | O=C(/C=C/c1cccc(C(F)(F)F)c1)Nc1cc(Cl)cc(Cl)c1 [1o, (2E)-N-(3,5-Dichlorophenyl)-3-[3-(trifluoromethyl)phenyl]prop-2-enamide] | 1.39 µM (≈ 0.501 µg/mL) | ~1.4 µM (≈ 0.504 µg/mL) | 0.15 to 5.57 µM and 0.146 to 5.57 µM | 22.2 µM (≈ 8 µg/mL) | 22.2 µM (≈ 8 µg/mL) | 22.2 µM (≈ 8 µg/mL) | 22.2 µM (≈ 8 µg/mL) | 22.2 µM (≈ 8 µg/mL) | 0.694 µM (≈ 0.25 µg/mL) | 0.25× MIC (0.25× MBC) | 0.25× MIC (0.25× MBC) | 124 to 126 °C | 2.78 µM (≈ 1 µg/mL) | 0.694 µM (≈ 0.25 µg/mL) | 0.694 µM (≈ 0.25 µg/mL) | 1.2028 | 1.39 µM (≈ 0.501 µg/mL) | 0.694 µM (≈ 0.25 µg/mL) | 0.694 µM (≈ 0.25 µg/mL) | > 30 µM | MIC (E. faecalis/VRE): ~15 µM (≈ 5.4 µg/mL); anti-enterococcal MICs/MBCs (E. faecalis/VRE): 2.34 to 44.5 µM; MIC [13]: 11.1 µM (≈ 4 µg/mL); MBC [16]: 22.2 µM (≈ 8 µg/mL); MIC (M. smegmatis ATCC 700084): 11.1 µM (≈ 4 µg/mL); MIC [20]: 22.2 µM (≈ 8 µg/mL)
3 | O=C(/C=C/c1cccc(C(F)(F)F)c1)Nc1cc(C(F)(F)F)cc(C(F)(F)F)c1 [1p, (2E)-N-[3,5-bis(Trifluoromethyl)phenyl]-3-[3-(trifluoromethyl)phenyl]prop-2-enamide] | 1.17 µM (≈ 0.5 µg/mL) |  |  |  |  |  |  |  | 1.17 µM (≈ 0.5 µg/mL) | 1× MIC (1× MBC) | 1× MIC (1× MBC) | 147 to 149 °C | 2.34 µM (≈ 1 µg/mL) | 1.17 µM (≈ 0.5 µg/mL) | 1.17 µM (≈ 0.5 µg/mL) | 1.3648 | 2.34 µM (≈ 1 µg/mL) | 0.585 µM (≈ 0.25 µg/mL) | 1.17 µM (≈ 0.5 µg/mL) | 6.7 ± 1.1 µM | MIC [6]: ~4.1 µM (≈ 1.75 µg/mL); MIC (M. smegmatis ATCC 700084): 9.36 µM (≈ 4 µg/mL)
4 | O=C(/C=C/c1ccc(C(F)(F)F)cc1)Nc1cccc(C(F)(F)F)c1 [2i, (2E)-N-[3-(Trifluoromethyl)phenyl]-3-[4-(trifluoromethyl)phenyl]prop-2-enamide] | 2.78 µM (≈ 0.999 µg/mL) | ~1.4 µM (≈ 0.503 µg/mL) | 0.15 to 5.57 µM and 0.146 to 5.57 µM | 11.1 µM (≈ 3.99 µg/mL) | 11.1 µM (≈ 3.99 µg/mL) | 22.3 µM (≈ 8.01 µg/mL) | 11.1 µM (≈ 3.99 µg/mL) | 11.1 µM (≈ 3.99 µg/mL) | 1.39 µM (≈ 0.499 µg/mL) | 1× MIC (1× MBC) | 1× MIC (1× MBC) | 134 to 136 °C | 2.78 µM (≈ 0.999 µg/mL) | 1.39 µM (≈ 0.499 µg/mL) | 1.39 µM (≈ 0.499 µg/mL) | 0.8867 | 2.78 µM (≈ 0.999 µg/mL) | 2.78 µM (≈ 0.999 µg/mL) | 1.39 µM (≈ 0.499 µg/mL) | > 10 µM | MIC (E. faecalis/VRE): ~15 µM (≈ 5.39 µg/mL); anti-enterococcal MICs/MBCs (E. faecalis/VRE): 2.34 to 44.5 µM; MIC [13]: 11.1 µM (≈ 3.99 µg/mL); MBC [16]: 44.5 µM (≈ 16 µg/mL); MIC MS (M. smegmatis ATCC 700084): no effect; MIC [20]: 11.1 µM (≈ 3.99 µg/mL)
5 | O=C(/C=C/c1ccccc1)Nc1ccc(Cl)c(Cl)c1 [3e] |  |  |  |  |  |  |  |  |  |  |  |  |  |  |  |  |  |  |  |  | average MIC against M. tuberculosis H37Ra (M. tuberculosis H37Ra): ~ 24 µM
